Source: ChEMBL document CHEMBL1154291, “Synthesis and SAR of 2-phenyl-1-sulfonylaminocyclopropane carboxylates as ADAMTS-5 (Aggrecanase-2) inhibitors” (Bioorg Med Chem Lett, 2009)

Target: T1, A disintegrin and metalloproteinase with thrombospondin motifs 5 (Homo sapiens) (UniProt Q9UNA0)
T1 sequence (whole entry): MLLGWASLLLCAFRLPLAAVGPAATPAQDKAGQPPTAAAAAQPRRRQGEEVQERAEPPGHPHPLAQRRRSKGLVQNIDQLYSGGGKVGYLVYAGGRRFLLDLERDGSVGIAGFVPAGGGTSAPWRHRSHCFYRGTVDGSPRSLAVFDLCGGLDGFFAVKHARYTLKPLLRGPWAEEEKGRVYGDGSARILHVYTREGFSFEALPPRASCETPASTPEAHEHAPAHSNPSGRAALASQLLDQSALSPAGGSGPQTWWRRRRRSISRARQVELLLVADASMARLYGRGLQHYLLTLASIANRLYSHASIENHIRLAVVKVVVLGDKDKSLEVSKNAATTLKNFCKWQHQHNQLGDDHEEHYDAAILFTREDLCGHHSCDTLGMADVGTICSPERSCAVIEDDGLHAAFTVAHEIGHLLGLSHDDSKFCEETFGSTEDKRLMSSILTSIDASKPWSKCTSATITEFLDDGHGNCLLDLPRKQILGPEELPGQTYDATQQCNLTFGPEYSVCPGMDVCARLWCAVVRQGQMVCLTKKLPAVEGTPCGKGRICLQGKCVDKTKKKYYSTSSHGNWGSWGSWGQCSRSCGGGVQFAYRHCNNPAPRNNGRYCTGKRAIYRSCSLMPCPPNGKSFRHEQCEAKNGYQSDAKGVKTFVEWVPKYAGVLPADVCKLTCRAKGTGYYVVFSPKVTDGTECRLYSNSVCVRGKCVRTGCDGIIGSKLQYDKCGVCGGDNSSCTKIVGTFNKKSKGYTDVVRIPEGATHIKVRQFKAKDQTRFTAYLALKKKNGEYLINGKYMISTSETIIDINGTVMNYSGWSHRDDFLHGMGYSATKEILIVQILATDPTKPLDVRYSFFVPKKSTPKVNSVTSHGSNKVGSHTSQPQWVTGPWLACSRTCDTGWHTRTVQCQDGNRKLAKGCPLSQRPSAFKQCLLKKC
Assay: Inhibition of ADAMTS5 at 1 uM
Conditions: not given

Structure (SMILES)	inhibition [%]
O=C(O)[C@]1(NS(=O)(=O)c2ccc(-c3ccccc3Cl)s2)C[C@@H]1c1ccccc1	48
CC1(C)C[C@@]1(NS(=O)(=O)c1ccc(-n2cc(Cl)cn2)s1)C(=O)O (racemic)	19.6
O=C(O)[C@]1(NS(=O)(=O)c2ccc(-n3cc(Cl)cn3)s2)CC[C@@H]1c1ccccc1 (racemic)	-0.84

The next lines start with the values.

inhibition [%]	Structure (SMILES)
3.5	C[C@H]1C[C@@]1(NS(=O)(=O)c1ccc(-n2cc(Cl)cn2)s1)C(=O)O (racemic)
25	O=C(O)[C@]1(NS(=O)(=O)c2ccc(-n3cc(Cl)cn3)s2)C[C@@H]1Cc1ccccc1 (racemic)

Target: T2, A disintegrin and metalloproteinase with thrombospondin motifs 5 (Homo sapiens, UniProt Q9UNA0)
T2 sequence (Q9UNA0 whole entry): T1 sequence (whole entry)
Assay: Inhibition of ADAMTS5
Conditions: not given

Structure (SMILES)	IC50 [nM]
C[C@]1(c2ccccc2)C[C@@]1(NS(=O)(=O)c1ccc(-n2cc(Cl)cn2)s1)C(=O)O	32
O=C(O)[C@]1(NS(=O)(=O)c2ccc(-c3ccc(Cl)cn3)s2)C[C@@H]1c1ccccc1	100
C[C@@H]1[C@H](c2ccccc2)[C@]1(NS(=O)(=O)c1ccc(-c2ccc(Cl)cc2)s1)C(=O)O	21
C[C@@H]1[C@H](c2ccccc2)[C@]1(NS(=O)(=O)c1ccc(-n2cc(Cl)cn2)s1)C(=O)O (racemic)	7.4
C[C@H]1[C@H](c2ccccc2)[C@]1(NS(=O)(=O)c1ccc(-c2ccc(Cl)cc2)s1)C(=O)O (racemic)	120
O=C(O)[C@]1(NS(=O)(=O)c2ccc(-c3cccc(Cl)c3)s2)C[C@@H]1c1ccccc1	94
CC(C)[C@H]1C[C@@]1(NS(=O)(=O)c1ccc(-n2cc(Cl)cn2)s1)C(=O)O (racemic)	770
O=C(O)[C@@]1(NS(=O)(=O)c2ccc(-c3ccc(Cl)cc3)cc2)C[C@H]1c1ccccc1	210
O=C(O)[C@]1(NS(=O)(=O)c2ccc(-n3cc(Cl)cn3)s2)C[C@@H]1C1CCCCC1 (racemic)	360

Results, then the compound that gave them:

IC50 [nM]	Structure (SMILES)
800	C[C@@H]1[C@H](C)[C@]1(NS(=O)(=O)c1ccc(-n2cc(Cl)cn2)s1)C(=O)O
60	O=C(O)[C@]1(NS(=O)(=O)c2ccc(-c3ccc(Cl)cc3)s2)C[C@@H]1c1ccccc1
10	C[C@]1(c2ccccc2)C[C@@]1(NS(=O)(=O)c1ccc(-c2ccc(Cl)cc2)s1)C(=O)O
84	O=C(O)[C@]1(NS(=O)(=O)c2ccc(-c3ccc(Cl)cc3)cc2)C[C@@H]1c1ccccc1
80	O=C(O)[C@]1(NS(=O)(=O)c2ccc(-n3cc(Cl)cn3)s2)C[C@@H]1c1ccccc1

Target: T1, A disintegrin and metalloproteinase with thrombospondin motifs 5 (Homo sapiens)
Assay: Inhibition of ADAMTS5 at 0.3 uM
Conditions: not given

inhibition [%]	Structure (SMILES)
18	COC(=O)c1cn(CCN([C@@]2(C(=O)O)C[C@@H]2c2ccccc2)S(=O)(=O)c2ccc(-c3ccc(Cl)cc3)cc2)cn1

Target: T3, Interstitial collagenase (Homo sapiens, UniProt P03956)
T3 sequence (P03956 whole entry): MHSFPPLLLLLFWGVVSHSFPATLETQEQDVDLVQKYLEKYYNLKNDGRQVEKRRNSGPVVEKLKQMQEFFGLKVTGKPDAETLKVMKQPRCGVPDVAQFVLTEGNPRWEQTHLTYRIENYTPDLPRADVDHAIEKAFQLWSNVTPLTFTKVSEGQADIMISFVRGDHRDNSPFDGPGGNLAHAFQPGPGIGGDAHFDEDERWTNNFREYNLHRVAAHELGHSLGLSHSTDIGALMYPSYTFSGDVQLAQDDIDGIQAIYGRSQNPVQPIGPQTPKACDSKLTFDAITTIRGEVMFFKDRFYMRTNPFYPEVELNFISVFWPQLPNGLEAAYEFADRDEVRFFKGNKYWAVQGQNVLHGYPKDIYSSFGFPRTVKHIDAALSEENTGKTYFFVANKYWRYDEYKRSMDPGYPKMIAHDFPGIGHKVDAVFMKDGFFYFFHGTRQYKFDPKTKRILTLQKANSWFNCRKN
Assay: Inhibition of MMP-1
Conditions: not given

IC50 [nM]	Structure (SMILES)
180	C[C@@H]1[C@H](c2ccccc2)[C@]1(NS(=O)(=O)c1ccc(-n2cc(Cl)cn2)s1)C(=O)O (racemic)

Target: Disintegrin and metalloproteinase domain-containing protein 17 (Homo sapiens, UniProt P78536)
Sequence (P78536 whole entry, the tested form may be a part): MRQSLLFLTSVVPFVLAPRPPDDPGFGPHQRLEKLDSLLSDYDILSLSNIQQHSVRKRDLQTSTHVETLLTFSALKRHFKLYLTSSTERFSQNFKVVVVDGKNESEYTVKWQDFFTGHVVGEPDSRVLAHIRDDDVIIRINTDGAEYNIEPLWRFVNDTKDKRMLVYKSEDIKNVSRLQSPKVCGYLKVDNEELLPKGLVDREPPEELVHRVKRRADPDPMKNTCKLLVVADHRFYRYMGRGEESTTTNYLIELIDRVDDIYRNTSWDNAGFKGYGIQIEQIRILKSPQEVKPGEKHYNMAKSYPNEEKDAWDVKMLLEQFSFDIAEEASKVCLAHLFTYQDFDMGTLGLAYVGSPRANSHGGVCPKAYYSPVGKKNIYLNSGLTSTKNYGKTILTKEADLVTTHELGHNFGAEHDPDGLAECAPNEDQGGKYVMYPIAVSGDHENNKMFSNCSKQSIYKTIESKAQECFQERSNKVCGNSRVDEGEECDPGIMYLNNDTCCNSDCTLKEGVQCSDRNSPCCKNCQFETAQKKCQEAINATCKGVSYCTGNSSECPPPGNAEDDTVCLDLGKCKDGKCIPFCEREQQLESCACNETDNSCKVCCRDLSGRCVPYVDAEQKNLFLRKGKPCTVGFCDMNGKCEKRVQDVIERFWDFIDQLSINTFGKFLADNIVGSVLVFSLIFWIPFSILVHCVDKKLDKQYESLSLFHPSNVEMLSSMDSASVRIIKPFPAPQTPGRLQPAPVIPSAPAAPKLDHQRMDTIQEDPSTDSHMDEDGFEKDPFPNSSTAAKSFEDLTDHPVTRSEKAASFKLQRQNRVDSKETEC
Assay: Inhibition of TACE
Conditions: not given

IC50 [nM]	Structure (SMILES)
4000	C[C@@H]1[C@H](c2ccccc2)[C@]1(NS(=O)(=O)c1ccc(-n2cc(Cl)cn2)s1)C(=O)O (racemic)

Test system: not listed separately
Assay: Oral bioavailability in rat
Format: ADME, organism-based
Conditions: in vivo

bioavailability [%]	Structure (SMILES)
81	C[C@@H]1[C@H](c2ccccc2)[C@]1(NS(=O)(=O)c1ccc(-n2cc(Cl)cn2)s1)C(=O)O (racemic)

Test system: not listed separately
Assay: Half life in rat
Format: ADME, organism-based
Conditions: in vivo

half-life [h]	Structure (SMILES)
4.5	C[C@@H]1[C@H](c2ccccc2)[C@]1(NS(=O)(=O)c1ccc(-n2cc(Cl)cn2)s1)C(=O)O (racemic)
